Results published in patent publication US11617726B2, “Method for preventing, treating, or ameliorating a microbial infection” (priority 2018, dated 2023).

System: Acinetobacter baumannii isolates
Assay: Antimicrobial susceptibility test, disc diffusion method (CLSI M100-S24)
Type: cell-based
Design: key to Inhibition zone: “NZ” indicated that no zone of inhibition was observed
Details: disc diffusion
Experimental: A total of 33 non-duplicate, non-consecutive clinical isolates of Multi-Drug Resistant (MDR) Acinetobacter baumannii were collected from burn wards (“AB1-AB33”). Acinetobacter baumannii ATCC BAA 747 and Pseudomonas aeruginosa ATCC 27853 were used as control strains. The isolates were stored at −80° C. in trypticase soy broth containing 20% glycerol.
Antimicrobial susceptibility tests of the collection of isolates were conducted using the disc diffusion method. The experiment was performed according to the recommendations and guidelines of Clinical Laboratory Standard Institutes (CLSI M100-S24; 2014). Clinical and Laboratory Standards Institute (CLSI), “Performance standards for antimicrobial susceptibility testing; twenty-fourth informational supplement,” Document M100-S24, Clinical and Laboratory Standards Institute (CLSI), Wayne, Pa., USA, 2014.
A panel of commercial antibiotic discs (Amoxicillin (AMX), Amoxicillin/clavulanic acid (AMX/CLA), Piperacillin (PIP), Piperacillin/Tazobactam (PIP/TAZ), Ceftazidime (CAZ), Cefotaxime (CTX), Cefepime (FEP), Cefoxitin (FOX), Aztreonam (ATM), Imipenem (IP), Gentamicin (GEN), Amikacin (AK), Neomycin (NEO), Levofloxacin (LEV), Chloramphenicol (CHL), Tetracycline (TET), sulfamethoxazole/trimethoprim (SUL/TRI) was used for susceptibility testing. All commercial antibiotic discs were purchased from BBL (Becton Dickinson, USA).
Forty grams of Mueller-Hinton Agar (MHA) were suspended in 1 Liter distilled water and then boiled to dissolve the powder completely. The medium was sterilized by autoclaving at 121° C. for 15 min. After autoclaving, the medium was cooled to 45° C. and 25 mL of molten agar media was poured into sterile Petri dishes (90 mm diameter) to give a depth of about 4 mm. The surface of the agar was dried to remove excess moisture before use. The plates were stored at 4-8° C. in sealed plastic bags if not used immediately.
The inoculum suspension was prepared by selecting three to five morphologically similar colonies from overnight growth (16-24 h of incubation) on blood agar medium. […] The suspension density was measured using a UV spectrophotometer calibrated with a 0.5 McFarland standard. The density of the suspension was adjusted to McFarland 0.5 by addition of saline or more microorganisms. The adjusted inoculum suspension was used within 60 min of preparation.
A sterile cotton swab was dipped into the bacterial suspension and the excess fluid was removed by turning the swab against the inside wall of the tube to avoid over-inoculation of plates. The inoculum was spread evenly over the entire surface of the agar plate by swabbing in three directions.
The predetermined panel of antimicrobial disks was applied firmly on the inoculated Mueller-Hinton agar surface within 15 min of inoculation of the plates by a disc dispenser device. A maximum of six disks were accommodated on a 90-mm circular plate.
Within 15 min of application of antimicrobial disks, the plates were inverted and incubated aerobically at 35-37° C. for 18-20 h.
After incubation, inhibition zones were measured at the point where no obvious growth is detected by the unaided eye when the plate is held about 30 cm from the eye. Inhibition zone diameters were measured to the nearest millimeter with a ruler. The plates were read from the back of the plate with reflected light against a dark background. Zone diameters were interpreted and categorized as susceptible “S”, intermediate “I”, or resistant “R” according to the CLSI clinical breakpoint tables (see Table 1 and Table 2).

## CN(C)[C@@H]1C(O)=C(C(N)=O)C(=O)[C@@]2(O)C(O)=C3C(=O)c4c(O)cccc4[C@@](C)(O)[C@H]3C[C@@H]12 [TET, Tetracycline]
Isolate AB1
  Inhibition zone: NZ
Isolate AB2
  Inhibition zone: 22 mm
Isolate AB3
  Inhibition zone: 22 mm
Isolate AB4
  Inhibition zone: 21 mm
Isolate AB5
  Inhibition zone: NZ
Isolate AB6
  Inhibition zone: NZ
Isolate AB7
  Inhibition zone: 21 mm
Isolate AB8
  Inhibition zone: 26 mm
Isolate AB9
  Inhibition zone: 23 mm
Isolate AB10
  Inhibition zone: NZ
Isolate AB11
  Inhibition zone: NZ
Isolate AB12
  Inhibition zone: NZ
Isolate AB13
  Inhibition zone: NZ
Isolate AB14
  Inhibition zone: 24 mm
Isolate AB15
  Inhibition zone: 19 mm
Isolate AB16
  Inhibition zone: NZ
Isolate AB17
  Inhibition zone: 21 mm
Isolate AB18
  Inhibition zone: 20 mm
Isolate AB19
  Inhibition zone: 17 mm
Isolate AB20
  Inhibition zone: 28 mm
Isolate AB21
  Inhibition zone: 19 mm
Isolate AB22
  Inhibition zone: 20 mm
Isolate AB23
  Inhibition zone: 23 mm
Isolate AB24
  Inhibition zone: 19 mm
Isolate AB25
  Inhibition zone: 25 mm
Isolate AB26
  Inhibition zone: NZ
Isolate AB27
  Inhibition zone: 8 mm
Isolate AB28
  Inhibition zone: 20 mm
Isolate AB29
  Inhibition zone: 19 mm
Isolate AB30
  Inhibition zone: 20 mm
Isolate AB31
  Inhibition zone: NZ
Isolate AB32
  Inhibition zone: 28 mm
Isolate AB33
  Inhibition zone: 24 mm
